Reference: patent US20230365537A1, “POLO LIKE KINASE 4 INHIBITORS” (ORIC Pharmaceuticals, Inc., priority 2021, published 2023)
pIC50: −log10 of the molar value.

How the values were obtained:
[1] = biological target: human recombinant Aurora A (Homo sapiens (Human), UniProt O14965); experiment: Aurora A Kinase Biochemical Assay (ADP-Glo); settings: ratio of Aurora A IC50 to PLK4 IC50 (selectivity)
human recombinant PLK4 = human recombinant PLK4 (Homo sapiens (Human), UniProt O00444); experiment: PLK4 Biochemical Assay (ADP-Glo); settings: 0.5 nM PLK4, 8.0 µM ATP, 4.7 µM MBP, 6 hours at RT
Chain of human recombinant PLK4 (O00444 whole entry): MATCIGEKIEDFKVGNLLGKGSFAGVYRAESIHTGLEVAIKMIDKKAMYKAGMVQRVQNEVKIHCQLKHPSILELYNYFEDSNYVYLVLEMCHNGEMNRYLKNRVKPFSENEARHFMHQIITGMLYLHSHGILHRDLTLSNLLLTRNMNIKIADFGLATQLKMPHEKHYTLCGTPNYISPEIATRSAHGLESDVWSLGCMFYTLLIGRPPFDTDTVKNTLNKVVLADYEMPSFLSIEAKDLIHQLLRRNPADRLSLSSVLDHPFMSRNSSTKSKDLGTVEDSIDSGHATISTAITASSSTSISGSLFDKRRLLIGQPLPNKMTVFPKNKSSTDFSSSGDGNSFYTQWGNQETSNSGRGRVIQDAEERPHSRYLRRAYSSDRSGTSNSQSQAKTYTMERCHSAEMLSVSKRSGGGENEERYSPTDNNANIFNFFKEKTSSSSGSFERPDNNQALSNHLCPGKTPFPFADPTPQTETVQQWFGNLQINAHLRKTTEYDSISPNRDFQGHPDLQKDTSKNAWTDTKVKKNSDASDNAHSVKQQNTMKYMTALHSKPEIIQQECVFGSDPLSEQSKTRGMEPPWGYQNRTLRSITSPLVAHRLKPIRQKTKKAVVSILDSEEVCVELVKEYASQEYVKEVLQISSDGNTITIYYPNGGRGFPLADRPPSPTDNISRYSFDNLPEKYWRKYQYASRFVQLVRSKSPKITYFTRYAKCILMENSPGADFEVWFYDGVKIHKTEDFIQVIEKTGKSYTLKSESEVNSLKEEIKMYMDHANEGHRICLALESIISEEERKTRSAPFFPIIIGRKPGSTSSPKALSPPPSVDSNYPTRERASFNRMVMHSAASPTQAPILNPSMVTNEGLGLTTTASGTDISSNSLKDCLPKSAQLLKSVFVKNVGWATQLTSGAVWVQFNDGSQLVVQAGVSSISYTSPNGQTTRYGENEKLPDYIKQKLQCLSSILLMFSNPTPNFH
How it was run: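 Luminescent ADP-Glo detection quantified ADP production, with ATP depletion for 40 min and detection for 30 min at room temperature. Compound and PLK4 (1.0 nM stock addition) were preincubated 15 min in HEPES pH 7.5 buffer containing MgCl2, EGTA, DTT, Brij-35 and BSA. IC50 values were obtained by four-parameter nonlinear regression.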

[2] = biological target: human recombinant Aurora B (Homo sapiens (Human), UniProt Q96GD4); experiment: Aurora B Kinase Biochemical Assay (ADP-Glo); settings: ratio of Aurora B IC50 to PLK4 IC50 (selectivity)
Chain of human recombinant Aurora B (Q96GD4 whole entry): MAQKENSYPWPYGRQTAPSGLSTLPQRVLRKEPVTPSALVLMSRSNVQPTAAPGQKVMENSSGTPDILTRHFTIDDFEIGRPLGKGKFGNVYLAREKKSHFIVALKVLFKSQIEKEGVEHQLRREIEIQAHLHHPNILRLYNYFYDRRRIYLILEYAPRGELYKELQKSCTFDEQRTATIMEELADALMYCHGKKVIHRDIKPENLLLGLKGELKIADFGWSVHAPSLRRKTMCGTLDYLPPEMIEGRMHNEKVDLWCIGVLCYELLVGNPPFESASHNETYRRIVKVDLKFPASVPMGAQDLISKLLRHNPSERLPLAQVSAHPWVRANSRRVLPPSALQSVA
How it was run: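 IC50 derived by four-parameter nonlinear fit of ADP-Glo luminescence (ADP produced). Compound was preincubated 15 min at RT with 20 nM recombinant human Aurora B, in 50 mM HEPES pH 7.5, 10 mM MgCl2, 1 mM EGTA, 1 mM DTT, 0.01% Brij-35/BSA.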

Chain of human recombinant Aurora A (O14965 whole entry): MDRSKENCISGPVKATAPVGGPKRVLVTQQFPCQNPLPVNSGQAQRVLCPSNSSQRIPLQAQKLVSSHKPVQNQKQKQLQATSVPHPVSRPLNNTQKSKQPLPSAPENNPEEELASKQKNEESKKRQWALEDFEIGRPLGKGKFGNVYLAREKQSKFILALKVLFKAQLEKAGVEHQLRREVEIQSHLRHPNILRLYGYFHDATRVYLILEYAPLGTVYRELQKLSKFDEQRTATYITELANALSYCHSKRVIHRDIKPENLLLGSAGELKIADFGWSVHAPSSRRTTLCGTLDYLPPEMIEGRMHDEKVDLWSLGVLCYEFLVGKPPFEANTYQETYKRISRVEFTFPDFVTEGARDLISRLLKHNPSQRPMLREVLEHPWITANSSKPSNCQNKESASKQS

[Aurora A IC50 (nM)]/[PLK4 IC50 (nM)] [1] | pIC50 (human recombinant PLK4) | [Aurora B IC50 (nM)]/[PLK4 IC50 (nM)] [2] | SMILES
105.7084 | 7.27 | 40.8516 | COc1cnc(C)nc1Nc1n[nH]c2cc([C@@H]3C[C@@]34C(=O)Nc3cc(F)ccc34)ccc12 [Example 131, (1R,2S)-6′-fluoro-2-{3-[(5-methoxy-2-methylpyrimidin-4-yl)amino]-1H-indazol-6-yl}spiro[cyclopropane-1,3′-indol]-2′(1′H)-one]
28.3312 | 7.15 | 62.6112 | Cc1ncc(OC(F)F)c(Nc2n[nH]c3cc([C@@H]4C[C@@]45C(=O)Nc4ccc(F)cc45)ccc23)n1 [Example 135, (1R,2S)-2-(3-{[5-(difluoromethoxy)-2-methylpyrimidin-4-yl]amino}-1H-indazol-6-yl)-5′-fluorospiro[cyclopropane-1,3′-indol]-2′(1′H)-one]
2573.3401 | 7.71 | 979.4132 | COc1ccc2c(c1)[C@]1(C[C@H]1c1ccc3c(Nc4nc(C)ncc4OC(C)C)n[nH]c3c1)C(=O)N2 [Example 136, (1R,2S)-5′-methoxy-2-[3-({2-methyl-5-[(propan-2-yl)oxy]pyrimidin-4-yl}amino)-1H-indazol-6-yl]spiro[cyclopropane-1,3′-indol]-2′(1′H)-one]
62 | 7.01 | 72 | COc1cnc(C)nc1Nc1n[nH]c2cc([C@@H]3C[C@@]34C(=O)Nc3ccc(C(F)(F)F)cc34)ccc12 [Example 137, (1R,2S)-2-{3-[(5-methoxy-2-methylpyrimidin-4-yl)amino]-1H-indazol-6-yl}-5′-(trifluoromethyl)spiro[cyclopropane-1,3′-indol]-2′(1′H)-one]
70 | 7.56 | 36 | COc1cnc(C)nc1Nc1n[nH]c2cc([C@@H]3C[C@@]34C(=O)Nc3ccc(OC(F)(F)F)cc34)ccc12 [Example 138, (1R,2S)-2-{3-[(5-methoxy-2-methylpyrimidin-4yl)amino]-1H-indazol-6-yl}-5′-(trifluoromethoxy)spiro[cyclopropane-1,3′-indol]-2′(1′H)-one]
7.4 | 5.50 | 9.6 | COc1cnc(C)nc1Nc1n[nH]c2cc([C@@H]3C[C@]34C(=O)Nc3ccc(OC(F)(F)F)cc34)ccc12 [Example 139, (1S,2S)-2-{3-[(5-methoxy-2-methylpyrimidin-4-yl)amino]-1H-indazol-6-yl}-5′-(trifluoromethoxy)spiro[cyclopropane-1,3′-indol]-2′(1′H)-one]
327.4181 | 7.88 | 891.0891 | COc1ccc2c(c1)[C@]1(C[C@H]1c1ccc3c(Nc4nc(C5COC5)ncc4OC(F)F)n[nH]c3c1)C(=O)N2 [Example 141, (1R,2S)-2-(3-{[5-(difluoromethoxy)-2-(oxetan-3-yl)pyrimidin-4-yl]amino}-1H-indazol-6-yl)-5′-methoxyspiro[cyclopropane-1,3′-indol]-2′(1′H)-one]
13.818 | 7.67 | 26.308 | COc1cnc(C)nc1Nc1n[nH]c2c(F)c([C@@H]3C[C@@]34C(=O)Nc3ccc(F)cc34)ccc12 [Example 142, (1R,2R)-5′-fluoro-2-{7-fluoro-3-[(5-methoxy-2-methylpyrimidin-4-yl)amino]-1H-indazol-6-yl}spiro[cyclopropane-1,3′-indol]-2′(1′H)-one]
14.621 | 7.07 | 40.607 | Cc1ncc(OC(F)F)c(Nc2n[nH]c3c(F)c([C@@H]4C[C@@]45C(=O)Nc4ccc(F)cc45)ccc23)n1 [Example 143, (1R,2R)-2-(3-{[5-(difluoromethoxy)-2-methylpyrimidin-4-yl]amino}-7-fluoro-1H-indazol-6-yl)-5′-fluorospiro[cyclopropane-1,3′-indol]-2′(1′H)-one]
61.2440 | 8.01 | 96.3153 | COc1ccc2c(c1)[C@]1(C[C@H]1c1ccc3c(Nc4cc(C(C)C)nc(C)n4)n[nH]c3c1)C(=O)N2 [Example 151, (1R,2S)-5′-methoxy-2-(3-{[2-methyl-6-(propan-2-yl)pyrimidin-4-yl]amino}-1H-indazol-6-yl)spiro[cyclopropane-1,3′-indol]-2′(1′H)-one]
502.7949 | 8.15 | 107.8116 | CCc1cnc(C)nc1Nc1n[nH]c2cc([C@@H]3C[C@@]34C(=O)Nc3ccc(OC)cc34)ccc12 [Example 152, (1R,2S)-2-{3-[(5-ethyl-2-methylpyrimidin-4-yl)amino]-1H-indazol-6-yl}-5′-methoxyspiro[cyclopropane-1,3′-indol]-2′(1′H)-one]
704.9238 | 8.07 | 51.7286 | COc1ccc2c(c1)[C@]1(C[C@H]1c1ccc3c(Nc4ncc(C(F)(F)F)cc4OC)n[nH]c3c1)C(=O)N2 [Example 158, (1R,2S)-5′-methoxy-2-(3-{[3-methoxy-5-(trifluoromethyl)pyridin-2-yl]amino}-1H-indazol-6-yl)spiro[cyclopropane-1,3′-indol]-2′(1′H)-one]
648.6776 | 8.08 | 105.2895 | COc1ccc2c(c1)[C@]1(C[C@H]1c1ccc3c(Nc4nc(C)ncc4SC)n[nH]c3c1)C(=O)N2 [Example 162, (1R,2S)-5′-methoxy-2-(3-{[2-methyl-5-(methylsulfanyl)pyrimidin-4-yl]amino}-1H-indazol-6-yl)spiro[cyclopropane-1,3′-indol]-2′(1′H)-one]
2415.5227 | 8.12 | 3693.2418 | COc1ccc2c(c1)[C@]1(C[C@H]1c1ccc3c(Nc4cc(C(=O)N(C)C)cnc4OC)n[nH]c3c1)C(=O)N2 [Example 181, 6-methoxy-5-({6-[(1R,2S)-5′-methoxy-2′-oxo-1′,2′-dihydrospiro[cyclopropane-1,3′-indol]-2-yl]-1H-indazol-3-yl}amino)-N,N-dimethylpyridine-3-carboxamide]
53.6821 | 8.35 | 198.8774 | COc1ccc2c(c1)[C@]1(C[C@H]1c1ccc3c(Nc4nc(N(C)C)ncc4C)n[nH]c3c1)C(=O)N2 [Example 182, (1R,2S)-2-(3-{[2-(dimethylamino)-5-methylpyrimidin-4-yl]amino}-1H-indazol-6-yl)-5′-methoxyspiro[cyclopropane-1,3′-indol]-2′(1′H)-one]
618.8586 | 9.09 | 80.2233 | COc1ccc2c(c1)[C@]1(C[C@H]1c1ccc3c(Nc4cc(F)c(C(=O)N(C)C)cc4OC)n[nH]c3c1)C(=O)N2 [Example 206, 2-fluoro-5-methoxy-4-({6-[(1R,2S)-5′-methoxy-2′-oxo-1’,2′-dihydrospiro[cyclopropane-1,3′-indol]-2-yl]-1H-indazol-3-yl}amino)-N,N-dimethylbenzamide]
497.3739 | 9.02 | 111.6597 | COc1ccc2c(c1)[C@]1(C[C@H]1c1ccc3c(Nc4cc(F)c(C(=O)N5CCOCC5)cc4OC)n[nH]c3c1)C(=O)N2 [Example 207, (1R,2S)-2-{3-[5-fluoro-2-methoxy-4-(morpholine-4-carbonyl)anilino]-1H-indazol-6-yl}-5′-methoxyspiro[cyclopropane-1,3′-indol]-2′(1′H)-one]
1042.4081 | 8.22 | 498.7527 | COc1ccc2c(c1)[C@]1(C[C@H]1c1ccc3c(Nc4cc(N5CCCC5=O)cnc4OC)n[nH]c3c1)C(=O)N2 [Example 220, (1R,2S)-5′-methoxy-2-(3-{[2-methoxy-5-(2-oxopyrrolidin-1-yl)pyridin-3-yl]amino}-1H-indazol-6-yl)spiro[cyclopropane-1,3′-indol]-2′(1′H)-one]
1669.4278 | 8.11 | 130.8780 | COc1ccc2c(c1)[C@]1(C[C@H]1c1ccc3c(Nc4ncc(P(C)(C)=O)nc4OC)n[nH]c3c1)C(=O)N2 [Example 229, (1R,2S)-2-(3-{[5-(dimethylphosphoryl)-3-methoxypyrazin-2-yl]amino}-1H-indazol-6-yl)-5′-methoxyspiro[cyclopropane-1,3′-indol]-2′(1′H)-one]
2053.4808 | 8.66 | 260.3503 | COc1ccc2c(c1)[C@]1(C[C@H]1c1ccc3c(Nc4ncc(C(=O)N5CC(OC)C5)cc4OC)n[nH]c3c1)C(=O)N2 [Example 235, (1R,2S)-5′-methoxy-2-(3-{[3-methoxy-5-(3-methoxyazetidine-1-carbonyl)pyridm-2-yl]amino}-1H-indazol-6-yl)spiro[cyclopropane-1,3′-indol]-2′(1′H)-one]
